Data on 17 compounds can be found in US20210318318A1, “Kinase Activity In Tumors” (Institute For Cancer Research d/b/a The Research Institute …, priority 2018, published 2021).

Holding throughout (assay type): cell-based, human
The test system of one experiment is Kuramochi. In words: Short-term growth assay (CellTiter-Glo cell viability), kinase inhibitors. The method, then:
(§1) Cell viability was determined by Cell Titer Glo analysis.
(§2) To explore the therapeutic potential of the HGSOC kinome signature, a detailed molecular analysis of protein levels/activity, growth and survival functions was carried out in a panel of recently validated HGSOC cell lines (Coscia et al., Nat. Commun., 2016, 7, 12645) that harbor commonly encountered HGSOC mutations and genetic rearrangements (see, FIG. 5A).
(§3) For short-term growth assays, 3000-5000 cells were plated per well in 96-well plates and allowed to adhere and equilibrate overnight. Drug was added the following morning and after 120 hours of drug treatment, cell viability was assessed using the CellTiter-Glo Luminescent cell viability assay according to manufacturer (Promega). Students t tests were performed for statistical analyses and p values ≤0.05 were considered significant. For colony formation assays, cells were plated in 24-well dishes (3000-5000 cells per well) and incubated overnight before continuous drug treatment for 14 days, with drug and media replaced twice weekly. At the end of treatment, cells were rinsed with PBS and fixed with chilled methanol for 10 minutes at −20° C. Methanol was removed by aspiration, and cells were stained with 0.5% crystal violet in 20% methanol for 20 minutes at room temperature, washed with distilled water, and scanned.
(In general: Cellular ATP, detected with luciferase, serves as a proxy for viable cell number.)

A further experiment has as its system OVSAHO. Described as above. The procedure: as §1, §2, §3
A further experiment concerns SNU-119. The experiment is described as above. The method, then: as §1, §2, §3
The subject of the next experiment is OVCAR4. The experiment is described as above. The method, then: as §1, §2, §3
In another experiment the test system is COV362. Described as above. The method, then:
as §1
COV362 cells were treated with increasing concentrations of A-674563 and cell viability assessed by Cell Titer Glo according to manufacturer's instructions. Data represent the mean of six replicates.
as §2, §3

In another experiment the test system is OVCAR4 cells. In words: Drug growth inhibition in cells depleted of dark kinases by siRNA (Cell Titer Glo). To be noted: increasing doses of drug. The method, then: OVCAR4 cells were transfected with control nontargeting or dark kinase siRNAs and treated with escalating doses of appropriate drugs.
To explore if blocking dark kinases AAK1, STK38 or MRCKA activity in combination with current therapies improves drug efficacy, OVCAR4 cells depleted of AAK1, STK38 or MRCKA were treated with increasing doses of carboplatin, olaparib, JQ1, or a variety of kinase inhibitors in clinical trials for HGSOC.
siRNA transfections were performed using 25 nM siRNA duplex and the reverse transfection protocol. 3000-5000 cells per well were added to 96 well plates with media containing the siRNA and transfection reagent (Lipofectamine RNAiMax) according to the manufacturer's instructions. In experiments where inhibitors were used, the inhibitor was added at the time of transfection. Cells were allowed to grow for 72-120 hours post-transfection prior to CellTiter Glo (Promega) analysis. Two-to-three independent experiments were performed with each cell line and siRNA. Students t tests were performed for statistical analyses and p values ≤0.05 were considered significant. For western blot studies, the same procedure was performed with volumes and cell numbers proportionally scaled to a 60 mm or 10 cm dish, and cells were collected 24-72 hours post-transfection. siRNA product numbers and manufacturers are listed in Table 5.

In the case of `CNCc1ccc(-c2cc(-c3nc(-c4ccc(S(=O)(=O)C(C)C)cc4)cnc3N)on2)cc1` [VX-90], the “Kinase inhibition profile of HGSOC cells (growth inhibition, Cell Titer Glo)” value (from here on “Kinase inhibition profile of HGSOC cells”) worked out at 0.6083 in the experiment on Kuramochi (drug 0.625 uM); 0.5885 in the experiment with OVSAHO (drug 0.625 uM); 0.51 in the experiment with SNU-119 (drug 0.625 uM); 0.2646 with OVCAR4 (drug 0.625 uM); 0.3346 in the experiment with COV362 (drug 0.625 uM).

With `C=CCn1c(=O)c2cnc(Nc3ccc(N4CCN(C)CC4)cc3)nc2n1-c1cccc(C(C)(C)O)n1` [MK-1775], the “Kinase inhibition profile of HGSOC cells” value with Kuramochi (drug 0.312 uM) was 1.111; in the experiment with OVSAHO (drug 0.312 uM), 0.5935; with SNU-119 (drug 0.312 uM), 0.4312; in the experiment on OVCAR4 (drug 0.312 uM), 0.6747; in the experiment on COV362 (drug 0.312 uM), 0.03494. In addition, the “growth inhibition by drug with MRCKA knockdown relative to non-targeting control siRNA” value in the experiment with OVCAR4 cells was “enhanced growth inhibition”.

As for `CS(=O)(=O)N1CCN(Cc2cc3nc(-c4cccc5[nH]ncc45)nc(N4CCOCC4)c3s2)CC1` [GDC-0941], in the experiment with OVCAR4 cells, the “growth inhibition by drug combined with knockdown of STK38” value is “improved growth inhibition”.

For the compound `CC(=O)Nc1cccc(-n2c(=O)n(C3CC3)c(=O)c3c(Nc4ccc(I)cc4F)n(C)c(=O)c(C)c32)c1` [Trametinib], the “Kinase inhibition profile of HGSOC cells” value was 0.7708 in the experiment on Kuramochi (drug 0.0125 uM); 0.7824 in the experiment with OVSAHO (drug 0.0125 uM); 0 with SNU-119 (drug 0.0125 uM); 0.8436 with OVCAR4 (drug 0.0125 uM); 0.5766 in the experiment with COV362 (drug 0.0125 uM).

Turning to `NC(=O)Nc1cc(-c2cccc(F)c2)sc1C(=O)N[C@H]1CCCNC1` [AZD7762], the “Kinase inhibition profile of HGSOC cells” value is 0.663 in the experiment on Kuramochi (drug 0.312 uM); 0.7988 in the experiment with OVSAHO (drug 0.312 uM); 0 in the experiment with SNU-119 (drug 0.312 uM); 0 in the experiment with OVCAR4 (drug 0.312 uM); 0.05872 with COV362 (drug 0.312 uM). Moreover, the “growth inhibition by drug with MRCKA knockdown relative to non-targeting control siRNA” value in the experiment with OVCAR4 cells was “enhanced growth inhibition”.

As to `NC(=O)Nc1sc(-c2ccc(F)cc2)cc1C(N)=O` [TPCA-1], the “Kinase inhibition profile of HGSOC cells” value in the experiment with Kuramochi (drug 1.2 uM) is on record as 0.988; with OVSAHO (drug 1.2 uM), 0.9827; in the experiment on SNU-119 (drug 1.2 uM), 0.9375; with OVCAR4 (drug 1.2 uM), 0.8768; in the experiment with COV362 (drug 1.2 uM), 1.094.

As for `Cc1cnc(Nc2ccc(F)cc2Cl)nc1-c1c[nH]c(C(=O)N[C@H](CO)c2cccc(Cl)c2)c1` [Vx-11e], the “Kinase inhibition profile of HGSOC cells” value in the experiment with Kuramochi (drug 0.625 uM) is given as 0.3596; in the experiment on OVSAHO (drug 0.625 uM) it was 0.5488; with SNU-119 (drug 0.625 uM) it was 0.3359; in the experiment with OVCAR4 (drug 0.625 uM), 0.9623; in the experiment with COV362 (drug 0.625 uM), 1.014.

Take `NC1(c2ccc(-c3nc4ccn5c(=O)[nH]nc5c4cc3-c3ccccc3)cc2)CCC1` [MK2206]: the “Kinase inhibition profile of HGSOC cells” value in the experiment with Kuramochi (drug 0.625 uM) came to 0.4701; in the experiment on OVSAHO (drug 0.625 uM) it was 0.6233; in the experiment with SNU-119 (drug 0.625 uM) it was 0.9728; with OVCAR4 (drug 0.625 uM), 0.9771; in the experiment with COV362 (drug 0.625 uM), 0.8254.

With `Cc1sc2c(c1C)C(c1ccc(Cl)cc1)=N[C@@H](CC(=O)OC(C)(C)C)c1nnc(C)n1-2` [JQ1], in the experiment on OVCAR4 cells, the “growth inhibition by drug combined with depletion of AAK1” value is on record as “enhanced growth inhibition” and the “growth inhibition by drug with MRCKA knockdown relative to non-targeting control siRNA” value was “enhanced growth inhibition”.

As to `CCc1cc(Nc2nccc(-c3c(-c4ccc(OC)c(C(=O)Nc5c(F)cccc5F)c4)nc4ccccn34)n2)c(OC)cc1N1CCC(N2CCN(S(C)(=O)=O)CC2)CC1` [GSK529A], the “Kinase inhibition profile of HGSOC cells” value with Kuramochi (drug 5 uM) was found to be 0.9732; with OVSAHO (drug 5 uM) it was 0.6574; with SNU-119 (drug 5 uM), 0.6579; with OVCAR4 (drug 5 uM), 0.5226; in the experiment with COV362 (drug 5 uM), 0.9731.

On to `CCOc1ccn(-c2ccc(F)cc2)c(=O)c1C(=O)Nc1ccc(Oc2ccnc(N)c2Cl)c(F)c1` [BMS777607], for which the “Kinase inhibition profile of HGSOC cells” value with Kuramochi (drug 1.2 uM) came out at 1.007; in the experiment with OVSAHO (drug 1.2 uM) it was 1.102; in the experiment with SNU-119 (drug 1.2 uM), 1.028; in the experiment with OVCAR4 (drug 1.2 uM), 1.062; in the experiment with COV362 (drug 1.2 uM), 0.9079.

On to `CNc1ncc2cc(-c3cc(NC(=O)NCCC(C)(C)C)c(F)cc3C)c(C)nc2n1` [LY300], for which the “Kinase inhibition profile of HGSOC cells” value with Kuramochi (drug 1.2 uM) was 0.09151; with OVSAHO (drug 1.2 uM), 0.166; with SNU-119 (drug 1.2 uM) it was 0.6599; with OVCAR4 (drug 1.2 uM), 0.6062; in the experiment on COV362 (drug 1.2 uM), 0.2612.

With `COc1cc(Nc2ncc3c(n2)-c2ccc(Cl)cc2C(c2c(F)cccc2OC)=NC3)ccc1C(=O)O` [Alisertib], the “Kinase inhibition profile of HGSOC cells” value in the experiment on Kuramochi (drug 0.312 uM) was 0.5199; in the experiment on OVSAHO (drug 0.312 uM), 0.5387; with SNU-119 (drug 0.312 uM), 1.057; in the experiment with OVCAR4 (drug 0.312 uM) it was 0.1016; in the experiment with COV362 (drug 0.312 uM), 1.075.

In the case of `CCS(=O)(=O)N1CCN(c2ccc(Nc3ncc(C(N)=O)c(NC4CC4)n3)cc2)CC1` [Cerdulatinib], the “Kinase inhibition profile of HGSOC cells” value with Kuramochi (drug 2.5 uM) is 1; with OVSAHO (drug 2.5 uM) it was 1; in the experiment with SNU-119 (drug 2.5 uM) it was 0.8395; in the experiment on OVCAR4 (drug 2.5 uM) it was 0.5051; with COV362 (drug 2.5 uM), −0.008256.

On to AZD4547, for which the “Kinase inhibition profile of HGSOC cells” value in the experiment on Kuramochi (drug 5 uM) is 0.7095; with OVSAHO (drug 5 uM), 0.4351; in the experiment on SNU-119 (drug 5 uM), 0.738; in the experiment with OVCAR4 (drug 5 uM) it was 0.5989; in the experiment on COV362 (drug 5 uM) it was 0.5474.

In the case of `COc1cc2c(Oc3ccc4[nH]c(C)cc4c3F)ncnc2cc1OCCCN1CCCC1` [Cederinib], the “Kinase inhibition profile of HGSOC cells” value with Kuramochi (drug 1.2 uM) amounted to 0.9466; in the experiment on OVSAHO (drug 1.2 uM), 1.089; with SNU-119 (drug 1.2 uM), 0.6258; with OVCAR4 (drug 1.2 uM), 1.089; in the experiment with COV362 (drug 1.2 uM), 0.9246.

Turning to `CC(=O)c1c(C)c2cnc(Nc3ccc(N4CCNCC4)cn3)nc2n(C2CCCC2)c1=O` [Palbociclib], the “Kinase inhibition profile of HGSOC cells” value stood at 0.09321 with Kuramochi (drug 5 uM); 0.6956 in the experiment on OVSAHO (drug 5 uM); 0.5867 in the experiment on SNU-119 (drug 5 uM); 0.7952 in the experiment on OVCAR4 (drug 5 uM); 0.92 in the experiment with COV362 (drug 5 uM).
